Measured values from PubChem BioAssay (NCI).
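Each compound was tested at five concentrations against cells in 96-well plates for 48 hours. TGI marks complete inhibition of growth.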

Legend:
Test in all cases: NCI tumour cell line growth inhibition, 48 h
XF 498 CNS = system: XF 498 CNS
LXFL 529 NSCLC = system: LXFL 529 NSCLC
DMS 273 small cell lung = system: DMS 273 small cell lung
U251 CNS = system: U251 CNS
KM20L2 colon = system: KM20L2 colon
K-562 leukemia = system: K-562 leukemia
SK-OV-3 ovarian = system: SK-OV-3 ovarian
M19-MEL melanoma = system: M19-MEL melanoma
SNB-78 CNS = system: SNB-78 CNS
SF-268 CNS = system: SF-268 CNS
DLD-1 colon = system: DLD-1 colon
DMS 114 small cell lung = system: DMS 114 small cell lung
HOP-18 NSCLC = system: HOP-18 NSCLC

Structure (SMILES)	TGI (XF 498 CNS) [µM]	TGI (LXFL 529 NSCLC) [µM]	TGI (DMS 273 small cell lung) [µM]	TGI (U251 CNS) [µM]	TGI (KM20L2 colon) [µM]	TGI (K-562 leukemia) [µM]	TGI (SK-OV-3 ovarian) [µM]	TGI (M19-MEL melanoma) [µM]	TGI (SNB-78 CNS) [µM]	TGI (SF-268 CNS) [µM]	TGI (DLD-1 colon) [µM]	TGI (DMS 114 small cell lung) [µM]	TGI (HOP-18 NSCLC) [µM]
CC(=O)NC1=C(NCCN(C)C)C(=O)c2ccccc2C1=O	35.1	> 50	27.6	29	> 50	> 50	> 50	14.3	> 50	> 50	> 50		
CO[C@@H]1C=C[C@@]23c4cc5c(cc4C(=O)O[C@H]2CN(C)[C@H]3C1)OCO5	> 100	> 100	> 100	> 100	> 100	> 100	> 100	> 100	> 100	> 100	> 100	> 100	> 100
CC1(C)C(O)C[C@@H](O)[C@@]2(C)C1CC[C@]1(C)C2C[C@@H](O)[C@@H]2C([C@@]3(C)CC[C@@H](C(C)(C)O)O3)CCC21C (stereo partly specified)	33.7	22.4	27.7	25.5	31.2	> 100	33.5		43.8	32	31.5	29.1	31.1
CC(=O)OC1CCCn2c1nc1c2C(=O)C(C)=C(N2CC2)C1=O (stereo unspecified)	0.685	1.66	0.552	0.533	1.2	> 35.2	0.965	1.63	2.88	1.05	10.9	2.38	1.11
CC(C)(C)OC(=O)NCCc1cccc2c1oc1c(CCC(=O)O)cccc12	> 100	> 100	> 100	> 100	> 100	> 100	> 100	> 100	> 100	> 100	> 100	> 100	> 100
CCc1n[nH]c(=O)n1/N=C/c1ccc(C)cc1				> 100		> 100	> 100			> 100			
